The values that follow come from US20240300946A1, “EGFR INHIBITORS” (Blueprint Medicines Corporation, priority 2021, published 2024).

For orientation: IC50 means the concentration that inhibits the measured activity by half.

The test system of experiment [1] is phosphorylation of EGFR in NCI-H1975 cell line that harbors the EGFR L858R T790 M mutations. Briefly: NCI-H1975 pEGFR AlphaLISA assay. The format is cell-based. The note with it: Homo sapiens, NCI-H1975, NCI-H1975 cells, p-EGFR (Tyr1068), 4-5 hours incubation; read-out: Ext pEGFR H1975 GMean IC50 (nM) Protocol: @ Pharmaron AlphaLISA (Num). The protocol: Inhibitory effects of the compounds of the disclosure were evaluated in cellular assays that measure level of intracellular phosphorylation of EGFR in NCI-H1975 cell line that harbors the EGFR L858R T790 M mutations (ATCC, CRL-5908) using AlphaLISA sureFire ultra p-EGFR (Tyr1068) assay kit (PerkinElmer, ALSU-PEGFR-A50K). The NCI-H1975 cells were seeded at 12.5K/well in 22 μL into 384 well opti plate (PerkinElmer, 6007299) and adhering overnight at 37° C./5% CO2. On the next day, the test compounds and DMSO control were added into H1975 cell plate followed by incubation at 37° C./5% CO2 for 4-5 hours. The cells were then spin down in the 384-well plate and lysed with 10 μL of 1× AlphaLISA lysis buffer followed by shaking at 600 rpm for 10 minutes at room temperature. After that, 5 μL of an acceptor bead mix was added to each well followed by incubation at room temperature for 1.5-2 h in dark. Then 5 μL of a donor bead mix was added to each well followed by overnight incubation at room temperature in dark. On the next day, the plate was read at a compatible plate reader to obtain pEGFR signal. Percent of pEGFR inhibition was plotted against log concentration of compounds to generate IC50 values.
(In general: Bead proximity is the source of the signal in Alpha formats.)

The target in experiment [2] is T1, EGFR (L858R T790 M C797S) (Homo sapiens, UniProt P00533, C797S/L858R/T790M).
T1 construct: purchased SignalChem E10-122VG
Description: Biochemical EGFR inhibition assay (Caliper mobility shift), LRTMCS mutant at 1 mM ATP. The note with it: read-out: LRTMCS (PH) IC50 (nM) @ 1 mM ATP (Num). The protocol: Inhibitory effects of the compounds of the disclosure were measured in biochemical assays that measure the phosphorylation activity of EGFR enzyme phosphorylates 2.5 micromolar 5-FAM-[…]-CONH2 peptide substrate (FL-Peptide 22, PerkinElmer, 760366) in the presence of adenosine-5′-triphosphate (ATP) and varying concentrations of the test compound in 100 mM 2-[4-(2-hydroxyethyl)piperazin-1-yl]ethanesulfonic acid (HEPES), pH 7.5, 10 mM MgCl2, 0.015% Brij-35, 1 mM dithiothreitol (DTT), 1.0% dimethylsulfoxide (DMSO). Assays were performed at 1.0 mM ATP or at ATP Km of the EGFR enzymes. Reactions proceeded until between 10% to 20% total peptides were phosphorylated at room temperature (25° C.) and were terminated with 35 mM 2,2′,2″,2′″-(ethane-1,2-diyldinitrilo)tetraacetic acid (EDTA). Product was detected using the Caliper mobility shift detection method where the phosphorylated peptide (product) and substrate were electrophoretically separated and measured. Percent activity was plotted against log concentration of compound and points to generate an apparent IC50. The following enzyme forms of EGFR were examples that were used in these assays: • EGFR WT (SignalChem, E10-112G) • EGFR (L858R T790 M C797S) (SignalChem, E10-122VG) • EGFR (d746-750) T790 M C797S (SignalChem, E10-122UG) • EGFR L858R (SignalChem, E10-122BG) • EGFR (d746-750) (SignalChem, E10-122JG)

T1 sequence (P00533 25-1210 T790M/C797S/L858R): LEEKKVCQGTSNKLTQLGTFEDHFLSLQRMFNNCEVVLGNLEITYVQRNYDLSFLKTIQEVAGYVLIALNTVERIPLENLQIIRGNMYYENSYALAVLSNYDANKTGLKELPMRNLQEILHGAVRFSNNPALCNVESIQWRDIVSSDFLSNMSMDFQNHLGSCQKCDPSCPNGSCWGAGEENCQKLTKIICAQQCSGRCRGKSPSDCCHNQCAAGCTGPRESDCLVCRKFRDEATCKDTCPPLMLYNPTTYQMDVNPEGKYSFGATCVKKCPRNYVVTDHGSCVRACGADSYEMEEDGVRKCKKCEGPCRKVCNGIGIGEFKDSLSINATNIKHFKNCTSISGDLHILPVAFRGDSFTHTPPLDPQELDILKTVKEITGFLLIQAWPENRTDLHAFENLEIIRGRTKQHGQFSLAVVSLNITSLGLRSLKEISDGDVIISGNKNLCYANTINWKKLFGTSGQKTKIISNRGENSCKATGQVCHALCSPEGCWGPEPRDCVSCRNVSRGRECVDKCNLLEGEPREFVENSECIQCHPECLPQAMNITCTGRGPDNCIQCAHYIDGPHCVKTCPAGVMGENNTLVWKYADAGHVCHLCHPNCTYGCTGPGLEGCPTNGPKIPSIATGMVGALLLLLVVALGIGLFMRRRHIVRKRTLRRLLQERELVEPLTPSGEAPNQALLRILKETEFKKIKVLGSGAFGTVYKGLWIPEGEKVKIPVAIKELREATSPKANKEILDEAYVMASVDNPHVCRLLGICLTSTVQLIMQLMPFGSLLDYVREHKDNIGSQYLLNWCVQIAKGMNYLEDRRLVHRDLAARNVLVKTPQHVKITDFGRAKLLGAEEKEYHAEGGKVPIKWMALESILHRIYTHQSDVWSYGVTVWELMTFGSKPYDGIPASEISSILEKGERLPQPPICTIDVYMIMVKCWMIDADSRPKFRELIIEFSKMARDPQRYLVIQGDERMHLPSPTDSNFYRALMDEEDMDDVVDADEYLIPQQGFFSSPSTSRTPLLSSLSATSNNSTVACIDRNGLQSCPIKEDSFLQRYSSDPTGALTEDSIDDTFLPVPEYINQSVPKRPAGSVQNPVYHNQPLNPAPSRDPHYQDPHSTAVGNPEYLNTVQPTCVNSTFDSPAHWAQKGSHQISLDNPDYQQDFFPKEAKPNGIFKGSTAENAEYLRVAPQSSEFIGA

Regarding `CC(C)c1ccc(N2CC(CS(C)(=O)=O)C2)c2cnc(Nc3ccnc(-c4cncc(Cl)c4)n3)cc12` [Example 14, N-(2-(5-chloropyridin-3-yl)pyrimidin-4-yl)-5-isopropyl-8-(3-((methylsulfonyl)methyl)azetidin-1-yl)isoquinolin-3-amine], the IC50 is greater than 50 nM in experiment [1] and 30 to 100 nM in experiment [2].
Turning to `CC(C)c1ccc(N2CC(CS(C)(=O)=O)C2)c2cnc(Nc3ccnc(C4=CCC5(CC4)OCCO5)n3)cc12` [Example 15, N-(2-(1,4-dioxaspiro[4.5]dec-7-en-8-yl)pyrimidin-4-yl)-5-isopropyl-8-(3-((methylsulfonyl)methyl)azetidin-1-yl)isoquinolin-3-amine], the results for the IC50 in experiment [1] and in experiment [2] were 30 to 50 nM and 15 to 20 nM, respectively.
The corresponding values for `CC(C)c1ccc(N2CC(CS(C)(=O)=O)C2)c2cnc(Nc3ccnc(C4CC(F)C4)n3)cc12` (stereo not drawn) [Example 26, N′-(2-(3-fluorocyclobutyl)pyrimidin-4-yl)-5-isopropyl-8-(3-((methylsulfonyl)methyl)azetidin-1-yl)isoquinolin-3-amine] are greater than 50 nM and 30 to 100 nM.
